# Data as given in US4632925A, “N-substituted diphenylpiperidines and antiobesity use thereof” (Hoffmann-La Roche Inc., priority 1985, dated 1986).
# What was measured:
# [1] = tested on: isolated perfused rat pancreas (insulin secretion); test: Insulin-secretory activity in the isolated perfused rat pancreas; set-up: species or system rat (female Charles River); conditions: 50 μM; 16.7 mM glucose; index > 1 indicates suppression of insulin secretion
# Experimental: DETERMINATION OF INSULIN-SECRETORY ACTIVITY IN THE ISOLATED PERFUSED RAT PANCREAS
# Pancreases were obtained from young adult female Charles River rats weighing from 200-300 g. The animals were anesthesized with sodium pentobarbitol (45 mg/kg), injected intraperitoneally, and the pancreas with its intact vasculature was removed and connected to an extracorporeal perfusion apparatus.
# The basic perfusion solution contained: 133 mM NaCl, 4.4 mM KCl, 2.5 mM MgSO4, 2.4 mM Ca gluconate, 1.5 mM KH2 PO4, 29.4 mM HaHCO3, 4% dextran and 0.2% bovine serum albumin and glucose as discussed below. The perfusion flow rate was kept constant at 4 ml/min. After a 15-20 minute equilibration period, the experimental protocol was begun. The pancreatic effluent was collected in either one or four-minute fractions.
# The perfusion was run in the following sequence for each test compounds:
# 30 min 16.7 mM glucose--internal control
# 30 min 16.7 mM glucose and test compound
# 10 min 16.7 mM glucose--to check pancreas viability
# The perfusion for the nontreated pancreas preparation was run as above, except that the test compound was omitted and replaced with perfusion solution.
# Test compounds were dissolved in 90% ethanol or dimethylsulfoxide to a concentration of 25 mM and then diluted in the perfusion buffer to the desired concentration. The perfusion effluent was collected in one or four minute fractions--the samples were checked immediately, aliquoted for submission to radioimmunoassay and stored at -20° C. until the time of assay. The radioimmunoassay of insulin was carried out by a back-titration method using a pure rat insulin standard.
# To assess the inhibitory activity of the test compounds, an inhibition index was calculated. The inhibition index is derived by comparing the insulin secretion response from treated versus nontreated pancreas preparations. For each preparation, a ratio of insulin secretion was calculated from the area under the insulin secretion curve of the first pulse of 16.7 mM glucose divided by the area under the curve of the second pulse of 16.7 mM glucose containing compound.
# [2] = Glucose clearance: acute in vivo model; set-up: species or system Sprague-Dawley rats; conditions: Rattus norvegicus, po, 0.5 h; 100 mg/kg intragastric, 30 min before i.p. glucose 1 g/kg; circulating glucose at 30 min; >100% indicates activity
# Experimental: GLUCOSE CLEARANCE: ACUTE IN VIVO MODEL
# The rationale for this test is that compounds which suppress insulin secretion should increase circulating glucose levels above those observed in controls following the administration of a high glucose load. Sprague-Dawley rats which range in weight from 150 to 180 grams after an overnight fast of 16 or 18 hours are given the test compound (100 mg/kg body weight) by intragastric administration 30 minutes before the intraperitoneal administration of glucose (1 g/kg body weight). Circulating glucose levels are determined immediately before glucose administration and 30, 60 and 90 minutes after glucose administration. Active compounds increase circulating glucose levels compared to controls. Since glucose levels peak at 30 minutes following glucose administration, the difference in circulating glucose levels between controls and treated rats at 30 minutes is used as an index of activity. The data are expressed as percent of control.
# [3] = Antiobesity effects in obese Zucker rats; assay type: in vivo, genetically obese male Zucker rats; conditions: 14 days
# [4] = Antiobesity effects in obese Zucker rats; assay type: in vivo, genetically obese male Zucker rats; conditions: for Circulating Insulin: last day of treatment
# Experimental: ANTIOBESITY EFFECTS IN OBESE ZUCKER RATS
# Genetically Obese Male Zucker rats were kept in temperature (22° C.) and light (12 hours light-dark cycle) regulated rooms. One week prior to the start of the experiment, the rats were transferred to individual wirebottomed cages and trained to eat a powdered chow diet (Ralston Purina Co., St. Louis, Mo.) ad libitum.
# At the beginning of the experiment, the control group contributed to eat the chow diet and the experimental animals were given a chow diet containing drug. The amount of drug administered was calculated from the food intake per kg body weight for each experimental group. The age of the rats at the start of the drug treatment was two to three months. The period of treatment was 28 to 64 days. Food intake and body weights were recorded periodically (once each day to twice a week) throughout the duration of the study. Plasma samples for insulin and glucose determinations were taken from clipped tails. Carcass composition was determined at the end of the treatment period and, or comparative purposes, prior to the start of treatment.
smiles,measurement,setting,value
"C(=C(c1ccccc1)c1ccccc1)C1CCN(CCCCCCCCc2cccnc2)CC1 [Example 25, 3-[8-[4-(2,2-diphenylethenyl)-1-piperidinyl]octyl]pyridine]",Perfused Pancreas Inhibition Index,[1],38
same,response vs control in vivo at 100 mg/kg,[2],127%
same,Body Weight Gain (treated minus control),"[3]; 38 mg/kg, marked *",-49 g
same,Body Weight Gain (treated minus control),"[4]; 9 mg/kg, 28 days",+9 g
same,Food Intake,"[4]; 9 mg/kg, 28 days",91 % of control
same,Circulating Insulin,"[4]; 9 mg/kg, 28 days",83 % of control
same,Body Weight Gain (treated minus control),"[4]; 17 mg/kg, 28 days",-16 g
same,Food Intake,"[4]; 17 mg/kg, 28 days",89 % of control
same,Circulating Insulin,"[4]; 17 mg/kg, 28 days",76 % of control
same,Circulating Insulin,"[4]; 24 mg/kg, 28 days, * p < 0.05",47 % of control
same,Body Weight Gain (treated minus control),"[4]; 24 mg/kg, 28 days, * p < 0.05",-32 g
same,Food Intake,"[4]; 24 mg/kg, 28 days, * p < 0.05",82 % of control
same,Circulating Insulin,"[4]; 28 mg/kg, 64 days, * p < 0.05",47 % of control
same,Body Weight Gain (treated minus control),"[4]; 28 mg/kg, 64 days, * p < 0.05",-88 g
same,Carcass Lipid Difference (treated minus control),"[4]; 28 mg/kg, 64 days, * p < 0.05",-62 g
same,Food Intake,"[4]; 28 mg/kg, 64 days, * p < 0.05",81 % of control
same,Circulating Insulin,"[4]; 34 mg/kg, 28 days, * p < 0.05",33 % of control
same,Body Weight Gain (treated minus control),"[4]; 34 mg/kg, 28 days, * p < 0.05",-55 g
same,Food Intake,"[4]; 34 mg/kg, 28 days, * p < 0.05",83 % of control
same,Relative Body Weight Gain Index,"[4]; 38 mg/kg, 14 days, gain / days / dose (g/kg)",92
same,Food Intake,"[4]; 38 mg/kg, 14 days, marked *",73 % of control
same,Food Intake,"[4]; 28 days of treatment, in words",dose dependent decrease
same,body weight,"[4]; 28 days of treatment, in words",dose dependent decrease in body weight
same,insulin levels,"[4]; 28 days of treatment, in words",dose dependent decrease
same,body weight,"[4]; 64 days, in words",Reduced body weight
same,carcass lipid,"[4]; 64 days, in words",decreased carcass lipid
same,Glucose levels,"[4]; treatment of obese rats, in words",unaltered by treatment
"O=C(CCCCCCCCc1cccnc1)N1CCC(C=C(c2ccccc2)c2ccccc2)CC1 [Example 30, 4-(2,2-Diphenylethenyl)-1-[1-oxo-9-(3-pyridinyl)nonyl]piperidine]",Perfused Pancreas Inhibition Index,[1],1.4
same,response vs control in vivo at 100 mg/kg,[2],100%
same,Relative Body Weight Gain Index,"[3]; 49 mg/kg, gain / days / dose (g/kg)",17
same,Body Weight Gain (treated minus control),"[4]; 49 mg/kg, 14 days",-12 g
same,Food Intake,"[4]; 49 mg/kg, 14 days",100 % of control
